From article PMC12480666, “A robust platform streamlining aromatic noncanonical amino acid biosynthesis and genetic code expansion in Escherichia coli” (Nature Communications, 2025)

Molecular target: T1, TyrB (aromatic amino acid aminotransferase) (Escherichia coli, UniProt P04693)
T1 construct: recombinant, purified from E. coli
T1 sequence (P04693 1-397): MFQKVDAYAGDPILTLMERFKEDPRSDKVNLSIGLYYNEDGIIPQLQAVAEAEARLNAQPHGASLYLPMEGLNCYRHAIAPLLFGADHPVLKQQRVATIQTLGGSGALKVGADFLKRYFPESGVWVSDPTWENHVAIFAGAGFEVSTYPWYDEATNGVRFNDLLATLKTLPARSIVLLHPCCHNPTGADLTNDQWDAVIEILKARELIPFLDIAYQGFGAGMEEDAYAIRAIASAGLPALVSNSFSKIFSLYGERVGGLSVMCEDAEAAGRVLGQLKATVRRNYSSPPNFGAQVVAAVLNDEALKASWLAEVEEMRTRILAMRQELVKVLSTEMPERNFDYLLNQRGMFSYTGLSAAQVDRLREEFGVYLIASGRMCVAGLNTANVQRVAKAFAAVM
Test: in vitro cascade of purified PpLTA, RpTD and TyrB
Type: biochemical
Settings: final transamination step

| SMILES | in vitro cascade of purified PpLTA, RpTD and TyrB (from 1 mM para-iodobenzaldehyde) | in vitro cascade of purified PpLTA, RpTD and TyrB (from 1 mM para-methylbenzaldehyde) |
| --- | --- | --- |
| N[C@@H](Cc1ccc(I)cc1)C(=O)O [compound 19, p-iodophenylalanine] | the enzyme cascade efficiently converted the substrates into their corresponding amino acids |  |
| Cc1ccc(C[C@H](N)C(=O)O)cc1 [p-methylphenylalanine] |  | the enzyme cascade efficiently converted the substrates into their corresponding amino acids |
